Read-outs that look alike come from different tables or passages of the source.
What was measured:
AGTR1 = biological target: T1, AGTR1 (Homo sapiens, UniProt P30556); assay: DiscoveRx β-arrestin2 recruitment assay (enzyme complementation, Pathunter CHO-K1 AGTR1 β-arrestin cell line); assay type: cell-based
T1 construct: host or cells: Pathunter CHO-K1 AGTR1 β-arrestin cell line (CHO-K1)
T1 sequence (P30556 1-359): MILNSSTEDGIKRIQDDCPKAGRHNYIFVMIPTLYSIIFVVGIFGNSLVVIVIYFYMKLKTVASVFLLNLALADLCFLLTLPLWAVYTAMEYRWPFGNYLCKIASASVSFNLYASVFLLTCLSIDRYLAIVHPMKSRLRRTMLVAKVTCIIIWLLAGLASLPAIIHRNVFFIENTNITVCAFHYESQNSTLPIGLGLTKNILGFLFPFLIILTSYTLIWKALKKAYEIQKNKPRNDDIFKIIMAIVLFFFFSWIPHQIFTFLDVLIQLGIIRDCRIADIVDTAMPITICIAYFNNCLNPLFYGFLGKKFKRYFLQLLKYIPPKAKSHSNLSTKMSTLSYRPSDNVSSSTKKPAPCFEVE
Summary of the method: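 Chemiluminescent enzyme-complementation read-out of β-arrestin2 recruitment to AGTR1 in engineered CHO-K1 cells after 90 min compound exposure at 37° C. Values are 4-parameter logistic EC50s in agonist mode, IC50s in antagonist mode, with efficacy relative to the maximal All response.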

hAT1R [1] = biological target: T2, hAT1R (Homo sapiens, UniProt P30556); assay: cell-based; details: section of the 42nd table ending at r951, example numbering restarts after the DiscoveRx section; read-out: β-arrestin2 EC50
T2 sequence (P30556 1-359): T1 sequence (P30556 1-359)

hAT1R [2] = biological target: T2, hAT1R; assay: BRET Gq biosensor assay, agonist response, HEK293 cells; assay type: cell-based; details: section of the 42nd table directly before the BRET P63 section
Summary of the method: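 Agonist EC50 derived from a 4-parameter fit of BRET2 ratio (GFP 515 nm/Rluc 410 nm), scaled between unstimulated control and maximal AngII response. Readings taken 5 min after compound addition at room temperature, with 2 μM coelenterazine, in HEK293 cells expressing hAT1R, Gαq-Rluc, Gβ1 and GFP-Gγ1 (transfected two days earlier).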

hAT1R [3] = biological target: T2, hAT1R; assay: cell-based; details: agonist mode; for EC50: read-out: BRET P63 EC50
hAT1R [4] = biological target: T2, hAT1R; assay: BRET β-arrestin2 biosensor assay, higher receptor expression (hAT1R 5 ng/well), HEK293 cells; assay type: cell-based; details: for EC50: High AT1R Expression
[5] = DiscoveRx β-arrestin2 recruitment
[6] = DiscoveRx β-arrestin2 recruitment, maximal response

EC50 (AGTR1) | SMILES | EC50 (AGTR1; [5]) | DiscoveRx β-arrestin2 Ymax (%) (AGTR1; [6]) | EC50 (hAT1R [1]) | EC50 (hAT1R [2]) | BRET P63 Ymax (hAT1R [3]) | EC50 (hAT1R [3]) | DiscoveRx β-arrestin2 Ymax (%) (AGTR1; [5]) | BRET β-Arrestin2 High AT1R Expression Ymax (%) (hAT1R [4]) | EC50 (hAT1R [4])
– | CCc1nc2c(C)cc(C)nc2n1Cc1ccc(-c2cc(-c3ccccc3)ccc2-c2nn[nH]n2)cc1F [Example 264, 2-ethyl-3-((3-fluoro-6′-(2H-tetrazol-5-yl)-[1,1′:3′,1″-terphenyl]-4-yl)methyl)-5,7-dimethyl-3H-imidazo[4,5-b]pyridine] | 19.2 nM | 52.9% | 12.9 nM | 42.8 nM | 15.7% | 7.4 nM | – | – | –
– | CCc1nc2c(C)cc(C)nc2n1Cc1ccc(-c2cc(-c3ccccc3)ccc2-c2nn[nH]n2)c(F)c1 [Example 265] | 30.1 nM | 53.4% | 18.9 nM | 29.2 nM | 17.9% | 7 nM | – | – | –
– | CCc1nc2c(C)cc(C)nc2n1Cc1ccc(-c2cc(-c3cccc(C)c3)ccc2-c2nn[nH]n2)cc1F [Example 266] | 64.3 nM | 75.8% | 5.7 nM | 26.1 nM | 19.1% | 5.7 nM | – | – | –
– | CCc1nc2c(C)cc(C)nc2n1Cc1ccc(-c2cc(-c3cccc(C)c3)ccc2-c2nn[nH]n2)c(F)c1 [Example 267] | 9.8 nM | 62.5% | 8.2 nM | 36.6 nM | 17.7% | 7.5 nM | – | – | –
– | CCOc1nc2cccc(C(=O)O)c2n1Cc1ccc(-c2cc(-c3cc(C)ccn3)ccc2-c2noc(=O)[nH]2)cc1 [Example 299, 2-ethoxy-1-((5′-(4-methylpyridin-2-yl)-2′-(5-oxo-4,5-dihydro-1,2,4-oxadiazol-3-yl)-[1,1′-biphenyl]-4-yl)methyl)-1H-benzo[d]imidazole-7-carboxylic acid] | 7.7 nM | 83.0% | 4.7 nM | 21.3 nM | 31.7% | 4.9 nM | – | – | –
– | CCOc1nc2cccc(C(=O)O)c2n1Cc1ccc(-c2cc(-c3cc(OC(F)F)ccn3)ccc2-c2noc(=O)[nH]2)cc1 [Example 302] | 10.2 nM | 61.1% | 14.9 nM | 47.3 nM | 25.2% | 10.2 nM | – | – | –
– | CCOc1nc2cccc(C(=O)O)c2n1Cc1ccc(-c2cc(-c3ccccn3)ccc2-c2noc(=O)[nH]2)cc1 [Example 303] | 42.3 nM | 58.9% | 38.2 nM | 109 nM | 30.4% | 49.7 nM | – | – | –
– | CCOc1nc2cccc(C(=O)O)c2n1Cc1ccc(-c2cc(-c3cc(N(C)C)ccn3)ccc2-c2noc(=O)[nH]2)cc1 [Example 305] | 25.5 nM | 69.3% | 90.3 nM | 82.9 nM | 24.3% | 67 nM | – | – | –
– | CCOc1nc2cccc(C(=O)O)c2n1Cc1ccc(-c2cc(-c3cc(C)ccn3)ccc2-c2nn[nH]n2)cc1 [Example 309, 2-ethoxy-1-((5′-(4-methylpyridin-2-yl)-2′-(2H-tetrazol-5-yl)-[1,1′-biphenyl]-4-yl)methyl)-1H-benzo[d]imidazole-7-carboxylic acid] | 4.1 nM | 80.4% | 6.5 nM | 7.9 nM | 28.6% | 3.8 nM | – | – | –
– | CCOc1nc2cccc(C(=O)O)c2n1Cc1ccc(-c2cc(-c3cc(OC)ccn3)ccc2-c2nn[nH]n2)cc1 [Example 310, 2-ethoxy-1-((5′-(4-methoxypyridin-2-yl)-2′-(2H-tetrazol-5-yl)-[1,1′-biphenyl]-4-yl)methyl)-1H-benzo[d]imidazole-7-carboxylic acid] | 14.9 nM | 51.4% | 10.9 nM | 35.3 nM | 29.1% | 7.2 nM | – | – | –
– | CCOc1nc2cccc(C(=O)O)c2n1Cc1ccc(-c2cc(N3CCC[C@@H](C)C3)ccc2-c2nn[nH]n2)cc1 [Example 323] | 22.2 nM | 43.2% | 24.4 nM | > 100000 nM | – | > 10000 nM | – | – | –
– | CCOc1nc2cccc(C(=O)O)c2n1Cc1ccc(-c2cc(N3CCC[C@H](C)C3)ccc2-c2nn[nH]n2)cc1 [Example 324] | 17.4 nM | 55.2% | 63.2 nM | 42.3 nM | – | > 10000 nM | – | – | –
– | CCOc1nc2cccc(C(=O)O)c2n1Cc1ccc(-c2cc(-c3cnc4ccccc4c3)ccc2-c2nn[nH]n2)cc1 [Example 326, 2-ethoxy-1-((5′-(quinolin-3-yl)-2′-(2H-tetrazol-5-yl)-[1,1′-biphenyl]-4-yl)methyl)-1H-benzo[d]imidazole-7-carboxylic acid] | 9.5 nM | 45.9% | 24.7 nM | 16.2 nM | – | > 100000 nM | – | – | –
– | CCOc1nc2cccc(C(=O)O)c2n1Cc1ccc(-c2cc(-c3cnn(C(F)F)c3)ccc2-c2nn[nH]n2)cc1 [Example 327, 1-((5′-(1-(difluoromethyl)-1H-pyrazol-4-yl)-2′-(2H-tetrazol-5-yl)-[1,1′-biphenyl]-4-yl)methyl)-2-ethoxy-1H-benzo[d]imidazole-7-carboxylic acid] | 9.4 nM | 64.2% | 33 nM | 22.1 nM | 10.8% | 26.9 nM | – | – | –
– | CCOc1nc2cccc(C(=O)O)c2n1Cc1ccc(-c2cc(Oc3ccccc3)ccc2-c2nn[nH]n2)cc1 [Example 330, 2-Ethoxy-1-((5′-phenoxy-2′-(2H-tetrazol-5-yl)-[1,1′-biphenyl]-4-yl)methyl)-1H-benzo[d]imidazole-7-carboxylic acid] | 13.2 nM | 57.8% | 16.7 nM | 40.1 nM | – | > 10000 nM | – | – | –
– | CCOc1nc2cccc(C(=O)O)c2n1Cc1ccc(-c2cc(Oc3cccc(F)c3)ccc2-c2nn[nH]n2)cc1 [Example 331] | 13.2 nM | 44.5% | 8.4 nM | 26.4 nM | – | > 10000 nM | – | – | –
– | CCOc1nc2cccc(C(=O)O)c2n1Cc1ccc(-c2cc(Oc3cccc(OC)c3)ccc2-c2nn[nH]n2)cc1 [Example 332] | 24.1 nM | 30.6% | 12.1 nM | 106 nM | – | > 10000 nM | – | – | –
– | CCOc1nc2cccc(C(=O)O)c2n1Cc1ccc(-c2cc(Oc3cccnc3)ccc2-c2nn[nH]n2)cc1 [Example 333] | 10 nM | 67.8% | 11.3 nM | 17.8 nM | – | > 10000 nM | – | – | –
– | CCOc1nc2cccc(C(=O)O)c2n1Cc1ccc(-c2cc(Oc3ccccc3F)ccc2-c2nn[nH]n2)cc1 [Example 334] | 10.8 nM | 73.5% | 5.9 nM | 41.3 nM | 13.9% | 15.7 nM | – | – | –
– | CCCCC(=O)N(Cc1ccc(-c2cc(-c3cccc(OC)n3)ccc2-c2nn[nH]n2)cc1)[C@H](C(=O)O)C(C)C [Example 446] | 179 nM | – | – | > 100000 nM | 4.5% | 668 nM | 29.8% | 84.3% | 144 nM
– | CCCCC(=O)N(Cc1ccc(-c2cc(N3CCC(C)CC3)ccc2-c2nn[nH]n2)cc1)[C@H](C(=O)O)C(C)C [Example 447] | 295 nM | – | – | 1380 nM | – | > 100000 nM | 35.0% | 63.1% | 336 nM
– | CCCCC(=O)N(Cc1ccc(-c2cc(N3CCCC(C)C3)ccc2-c2nn[nH]n2)cc1)[C@H](C(=O)O)C(C)C (some centres unmarked) [Example 448] | 161 nM | – | – | 856 nM | – | > 100000 nM | 20.8% | 58.5% | 599 nM
– | CCCCC(=O)N(Cc1ccc(-c2cc(Nc3ccccc3)ccc2-c2nn[nH]n2)cc1)[C@H](C(=O)O)C(C)C [Example 449] | 263 nM | – | – | > 100000 nM | – | > 100000 nM | 17.8% | 30.1% | 345 nM
> 100000 nM | CCCCC1=NC2(CCCC2)C(=O)N1Cc1ccc(-c2cc(Oc3cc(C)ccn3)ccc2-c2nn[nH]n2)cc1 [Example 455] | 46.8 nM | – | 182 nM | 93.8 nM | – | – | 14.4% | – | –
